How the values were obtained:
[1] = test system: incised wound; test: Incised wound healing in rats (tension needed to peel skin at the wound, tensile strength tester); format: in vivo, Wistar male rats; settings: relative to control (physiological saline) = 100; Concn. 0.5 % in saline, subcutaneously once a day for 7 days, 0.67 ml/kg/day; tension measured 8 days after operation; 8 rats per group
From the text: Groups of Wistar male rats (SPF; each group comprising 8 animals) were anesthetized with Nembutal® pentobarbital sodium) injection and hair was removed from the back of each rat over a wide area. After disinfecting the area with alcohol, a sharp incised wound having a length of 4 cm was mesially formed with a scalpel and it was stitched up, with Mitchell needles, at three positions at regular intervals (the Mitchell needles were removed 4 days after the operation).
After forming incised wound, an effective component was dissolved in a saline solution and administered subcutaneously once a day for 7 days successively (dose: 0.67 m ℓ/kg/day). The animals were sacrificed 8 days after the operation, the skin of the wounded part was peeled off to remove subcutis followed by preparing three pieces of the skin perpendicular to the line of the incised wound, having a width of 1 cm, per rat and determining tention (g/cm) required for peeling off each piece of the skin at the incised wound portion utilizing a tensile strength tester. The relative value of the average of the measured tension with respect to that of the control was defined as an indication of the rate of healing of the wound. The results obtained are listed in Table III given below (the results are expressed in the value relative to that of the control which is defined as 100).

[2] = test system: defective wound; test: Circular defective wound in rats (weight of regenerated granulation); format: in vivo, Wistar male rats; settings: relative to control (10% ethanol aqueous solution) = 100; Concn. 0.1 % in 10% ethanol aqueous solution, applied to wound twice a day, 1 ml per application, 5 days; granulation weight 6 days after wounding; 6 rats per group
Description: Groups of Wistar male rats (SPF; each group comprising 6 animals) were anesthetized and hair was removed from the back of each rat. Then a circular defective wound having a diameter of 12 mm was formed on the skin of the back from which hair had been removed.
After forming the defective wound, an effective component was dissolved in 10% ethanol aqueous solution and applied to the wounded portion twice a day in a dose of 1 mℓ per application for 5 days successively. 6 Days after the formation of the wound, the animals were sacrificed to cut off the formed granulation from the defective portion and the weight of the granulation was determined. The relative value of the average of the measured weight with respect to that of the control was defined as an indication of the rate of healing of the defective wound. The results obtained are listed in Table IV given below (the results are expressed in the value relative to that of the control which is defined as 100).

[3] = Stability of the compound in the used composition after the use test, HPLC; format: physicochemical; settings: on the average, 131400 min

| Structure (SMILES) | Rate of Relative Healing [1] | Rate of Regenerated Granulation [2] | rate of Compound I-A ·2Ca remaining in the milky lotion ([3]; in the used milky lotion (0.05 %) after completion of the 3-month test) [%] | rate of Compound I-A ·6Na remaining in the beauty essence ([3]; in the used beauty essence (0.1 %) after completion of the 3-month test) [%] | rate of the remaining Compound I-A ([3]; in the used toilet water (0.1 %) after completion of the 3-month test) [%] |
| --- | --- | --- | --- | --- | --- |
| CC(C)(COP(=O)(O)OP(=O)(O)OC[C@H]1O[C@@H](n2cnc3c(N)ncnc32)[C@H](O)[C@@H]1OP(=O)(O)O)[C@@H](O)C(=O)NCCC(=O)NCCS [Coenzyme A ·3Na, reference compound] | 117 | 119 | – | – | – |
| CC(C)(COP(=O)(O)OP(=O)(O)OC[C@H]1O[C@@H](n2cnc3c(N)ncnc32)[C@H](O)[C@@H]1OP(=O)(O)O)[C@@H](O)C(=O)NCCC(=O)NCCSSCCNC(=O)CCNC(=O)[C@H](O)C(C)(C)COP(=O)(O)OP(=O)(O)OC[C@H]1O[C@@H](n2cnc3c(N)ncnc32)[C@H](O)[C@@H]1OP(=O)(O)O [Compound I-A ·2Ca] | – | – | 98.8 | – | – |
| CC(C)(COP(=O)(O)OP(=O)(O)OC[C@H]1O[C@@H](n2cnc3c(N)ncnc32)[C@H](O)[C@@H]1OP(=O)(O)O)[C@@H](O)C(=O)NCCC(=O)NCCSSCCNC(=O)CCNC(=O)[C@H](O)C(C)(C)COP(=O)(O)OP(=O)(O)OC[C@H]1O[C@@H](n2cnc3c(N)ncnc32)[C@H](O)[C@@H]1OP(=O)(O)O [Compound I-A ·6Na] | 126 | 148 | – | 98.5 | – |
| CC(C)(COP(=O)(O)OP(=O)(O)OC[C@H]1O[C@@H](n2cnc3c(N)ncnc32)[C@H](O)[C@@H]1OP(=O)(O)O)[C@@H](O)C(=O)NCCC(=O)NCCSSCCNC(=O)CCNC(=O)[C@H](O)C(C)(C)COP(=O)(O)OP(=O)(O)OC[C@H]1O[C@@H](n2cnc3c(N)ncnc32)[C@H](O)[C@@H]1OP(=O)(O)O [Compound I-A] | – | – | – | – | 97.8 |

Source: EP0344708A2, “Composition for external application to skin” (LION CORPORATION, priority 1988, dated 1989)
